Results reported in patent US20140342065A1 (priority 2012, published 2014).

How the values were obtained:
[1] = test system: freshly cut chips of lettuce and lotus roots; assay: NaHS solution fumigation of freshly cut chips of lettuce and lotus roots
Procedure: (§1) Aqueous NaHS solutions (0.25-3.5 mmol/L) could release H2S gas (10^−12˜10^−10 mol/L). H2S rapidly, reached to the highest levels within several minutes and maintained a constant concentration. […] The NaHS solution was renewed every 48 or 72 hours. The NaHS solution was placed in a sealed container separated by a partition board with pores on it. The fresh cut vegetables including Broccoli, Lettuce, Lotus Root, Yam, Pumpkin, Sweet Potato, Potato, etc, and the fresh cut fruits Apple, Pear, Kiwi Fruit, Tomato, Hami Melon, and Peach were placed above the board, while the NaHS solution was placed under the board. Therefore, the fresh cut vegetables and fruits were fumigated with H2S gas released from NaHS in the solution.
The control freshly cut chips of lettuce and lotus roots that were treated with water (0.0 mmol/L NaHS) lost their water and edibility after 15-24 hours, while the freshness of freshly cut chips of lettuce and lotus roots treated with 0.1 mmol/L-1.0 mmol/L NaHS solution was prolonged by 12-18 hours.

[2] = test system: freshly cut pears and peaches; assay: NaHS solution fumigation of freshly cut pears and peaches
Procedure: as §1
The control of freshly cut pears and peaches that were treated with water (0.0 mml/L NaHS), lost their edibility on day 2, while the shelf life of freshly cut pear and peach treated with 0.5 mmol/L-2.0 mmol/L NaHS solution was prolonged by 1-2 days. […] The control freshly cut pears and peaches treated with 0.0 mmol/L NaHS solution underwent rot process (due to physiological senescence and microbe infection) in 2.5 days, and the moldy rate reached 100% in 4 days.

bacteria or yeast = details: exposed one day (NaHS 50 mg, gas 40 ppm or saturated water 0.04% 1 ml), then sealed two months at room temperature
Description: Control counterparts were also kept at room temperature within a closed environment. Then, the plates were removed from these environments, sealed and placed at room temperature for two months.

bacteria and yeast = assay: Agar plate cultures stored with 50 mg NaHS (FIG. 10, 98); assay type: cell-based
Procedure: Representative samples of foods shown include fruits, vegetables, meat, chicken and salmon. […] Foods and fruits were stored in closed containers. The containers were made of aluminum with a plastic lid that snugly fitted onto the container rim. […] Control group (Control) of foods and fruits were stored within the containers. The experimental group (Exp) of foods and fruits were placed in the same type of containers and 500 mg of NaHS was placed in a glass cup which was placed in one corner of the container of the Exp group. The containers were not sealed. Using a H2S gas detector capable of detecting 1 to 500 ppm of H2S, no H2S was detected outside the containers. The amount of gas within the Exp containers varied from 5-40 ppm during the course of exposure. […] Experiments were carried out at room temperature for the durations shown. […] There is small change in color, consistency, and of the same food group and there is no evidence of growth of yeast in the NaHS treated group. Strawberry 80. […] The fruit also lost its consistency and is discolored. […] Raspberry 82. Growth of yeast is seen by day 4 and is pronounced on day 6 (arrow 83) in the control group. The fruit also lost its consistency and is discolored. […] Blackberry 84. Growth of yeast is seen by day 4 which is pronounced by day 6 (arrow 85) in the control group. The fruit also lost its consistency and is discolored. […] Banana 86. […]

[3] = Release of H2S gas from aqueous NaHS solutions; assay type: physicochemical; details: aqueous NaHS solutions 0.25-3.5 mmol/L
Procedure: as §1

[4] = test system: freshly cut yams, sweet potatoes and potatoes; assay: NaHS solution fumigation of freshly cut yams, sweet potatoes and potatoes
Procedure: as §1
The control freshly cut yams, sweet potatoes and potatoes that were treated with water (0.0 mmol/L NaHS) underwent browning at 10˜12 hours, while the browning time of freshly cut yams, sweet potatoes and potatoes treated with 0.25-1.75 mmol/L NaHS solution was postponed by about 15-20 hours.

freshly cut Kiwi fruits = assay: NaHS solution fumigation of freshly cut Kiwi fruits
Procedure: as §1
The control freshly cut Kiwi fruits that were treated with water (0.0 mmol/L NaHS) lost their color and their edibility completely on day 4, while the shelf life of freshly cut Kiwi fruits treated with 0.25 mmol/L-1.75 mmol/L NaHS solution was prolonged by 2-3 days. […] The control freshly cut Kiwi fruits treated with 0.0 mmol/L NaHS solution underwent rot process in 5 days, and the rot rate reached 100% in 7 days.

For `S` [NaHS, sodium hydrosulfide], the “freshness prolonged by” value ([1]; 0.1 mmol/L-1.0 mmol/L NaHS, control lost water and edibility after 15-24 hours) was 12 to 18 h, the “freshness prolonged by” value ([1]; 0.8 mmol/L-1.0 mmol/L NaHS (best)) was 18 h and the “shelf life prolonged by” value ([2]; 0.5 mmol/L-2.0 mmol/L NaHS, control lost edibility on day 2) was 1 to 2 days. For the same compound, the “shelf life prolonged by” value ([2]; 1.5 mmol/L NaHS (best)) was 2 days, the “day until which micro-organisms did not appear” value ([2]; 1.5-2.0 mmol/L NaHS) was 5 days and the moldy rate ([2]; 1.5-2.0 mmol/L NaHS, after 10 days, control 100% in 4 days) was 80%. For the same compound, the “growth of bacteria and yeast on agar plates” value (bacteria or yeast) was “no growth was evident”, the “time without growth following initiation of cultures” value (bacteria and yeast) was “up to 2 months” and the “colonies of bacteria and yeast on agar plates” value (bacteria and yeast; room temperature or 37° C., day 1-3) was “no growth was evident”. For the same compound, the H2S gas released [3] was 10^−12˜10^−10 mol/L, the “browning time postponed by” value ([4]; 0.25-1.75 mmol/L NaHS, control browning at 10˜12 hours) was 15 to 20 h and the “browning time postponed by” value ([4]; 1.0-1.5 mmol/L NaHS (most optimal)) was 16 to 20 h. For the same compound, the “shelf life prolonged by” value (freshly cut Kiwi fruits; 0.25 mmol/L-1.75 mmol/L NaHS, control lost edibility on day 4) was 2 to 3 days, the “shelf life prolonged by” value (freshly cut Kiwi fruits; 1.5 mmol/L NaHS (best)) was 2 days and the “day until which micro-organisms did not appear” value (freshly cut Kiwi fruits; 1.5 mmol/L NaHS, control rot rate 100% in 7 days) was 10 days.
